Measurements: patent publication US9789111B2, “Casein kinase 1δ (CK 1δ) inhibitors” (Electrophoretics Limited, priority 2010, dated 2017)

Assays:
CK1δ = biological target: T1, CK1δ (Homo sapiens, UniProt P48730); assay: CK1δ inhibition assay (33P-ATP, CK1tide substrate); assay type: biochemical; conditions: range of kinase inhibition assays
T1 construct: Recombinant human full-length construct; GST; host or cells: insect cells
T1 sequence (P48730 1-409 isoform P48730-2): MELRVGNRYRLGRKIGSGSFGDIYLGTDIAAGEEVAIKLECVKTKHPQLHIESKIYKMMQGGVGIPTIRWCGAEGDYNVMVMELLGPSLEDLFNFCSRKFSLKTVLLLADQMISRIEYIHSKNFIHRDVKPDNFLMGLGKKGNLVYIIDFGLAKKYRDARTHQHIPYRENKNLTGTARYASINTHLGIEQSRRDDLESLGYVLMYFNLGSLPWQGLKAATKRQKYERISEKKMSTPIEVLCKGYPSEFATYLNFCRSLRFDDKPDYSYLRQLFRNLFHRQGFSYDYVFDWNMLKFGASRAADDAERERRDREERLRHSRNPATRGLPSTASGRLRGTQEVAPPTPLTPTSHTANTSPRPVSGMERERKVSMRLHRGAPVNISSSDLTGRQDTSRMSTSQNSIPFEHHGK
Protocol: The compounds of the invention may be tested for inhibition of casein kinase 1 delta (CK1δ) in accordance with the assay protocols described in US 2010/0152157, EP 1,636,375 or Hanger et al (2007) J. Biol. Chem. 282, 23645-23654. In particular, the assay was conducted in accordance with the following protocol:
(§1) Base Reaction buffer; 20 mM Hepes (pH 7.5), 10 mM MgCl2, 1 mM EGTA, 0.02% Brij35, 0.02 mg/ml BSA, 0.1 mM Na3VO4, 2 mM DTT, 1% DMSO
(§2) It should be noted that required cofactors are added individually to each kinase reaction.
(§3) • 1. Prepare indicated substrate in freshly prepared Base Reaction Buffer as described above • 2. Deliver any required cofactors to the substrate solution • 3. Deliver indicated kinase into the substrate solution and gently mix • 4. Deliver compounds in DMSO into the kinase reaction mixture • 5. Deliver ^33P-ATP (specific activity 0.01 μCi/μl final) into the reaction mixture to initiate the reaction • 6. Incubate kinase reaction for 120 min. at room temperature • 7. Reactions are spotted onto P81 ion exchange paper (Whatman #3698-915) • 8. Wash filters extensively in 0.75% Phosphoric acid Kinase Information: • CK1δ—Genbank Accession # NP_620693 • Recombinant human full-length construct. GST-tagged, expressed in insect cells. • Final concentration in assay=4 nM • Substrate: CK1tide • Substrate sequence: [KRRRAL[pS]VASLPGL] • Final substrate concentration in assay=20 μM • It should be noted that no additional cofactors are added to the reaction mixture.

GSK3b = GSK3b (Homo sapiens, UniProt P49841); assay: kinase inhibition assay panel; assay type: biochemical
Protocol: as §1, §2, §3

MSK1/RPS6KA5 = MSK1/RPS6KA5 (Homo sapiens, UniProt O75582); assay: kinase inhibition assay panel; assay type: biochemical
Protocol: as §1, §2, §3

PIM3 = PIM3 (Homo sapiens, UniProt Q86V86); assay: kinase inhibition assay panel; assay type: biochemical
Protocol: as §1, §2, §3

PKCb2 = PKCb2 (Homo sapiens, UniProt P05771); assay: kinase inhibition assay panel; assay type: biochemical
Protocol: as §1, §2, §3

ROCK1 = ROCK1 (Homo sapiens, UniProt Q13464); assay: kinase inhibition assay panel; assay type: biochemical
Protocol: as §1, §2, §3

TNIK = TNIK (Homo sapiens, UniProt Q9UKE5); assay: kinase inhibition assay panel; assay type: biochemical
Protocol: as §1, §2, §3

CLK2 = CLK2 (Homo sapiens, UniProt P49760); assay: kinase inhibition assay panel; assay type: biochemical
FGFR1 = FGFR1 (Homo sapiens, UniProt P11362); assay: kinase inhibition assay panel; assay type: biochemical
[1] = tested on: Tau phosphorylation in SH-SY5Y-TMHT cells; assay: PhosphoTau SRM assay V2 and V3 (mass spectrometric); assay type: cell-based, human; conditions: for relative level of phosphorylation at each site (level of phosphopeptide) compared with vehicle treated controls / Tau phosphorylated at S396: 10 μM; for relative level of phosphorylation at each site (level of phosphopeptide) compared with vehicle treated controls: PhosphoTau SRM assay V2 and V3; for Tau phosphorylated at S396: vehicle control approximately 83%; for phosphorylation of Ser 396 within Tau proteins: FIG. 4
Text: The PhosphoTau SRM V2 assay measures total tau and relative phosphorylation levels at five of the most commonly studied sites on Tau and was obtained from Proteome Sciences plc (Cobham, England). None of the sites in the V2 assay is uniquely phosphorylated by CK1δ and there is a possibility that compound-induced inhibition of phosphorylation measured by this method may be achieved through promiscuous inhibition of other kinases such as GSK3b and/or CDK5. […] Table 1 lists the various sites covered and the candidate Tau kinases reported in Hanger et al. (2007).
SH-SY5Y-TMHT cells are kept in culture medium (DMEM medium, 10% FCS, 1% NEAA, 1% L-Glutamine, 100 μg/ml Gentamycin, 300 μg/ml Geneticin G-418) for 2 days until 80-90% confluency. Cells are then differentiated in culture medium supplemented with 10 μM retinoic acid (RA) for 7 days changing medium every 2 to 3 days. […] On day 8 post-differentiation, the test compounds, reference compounds and vehicle control were added to the culture medium. After 6 h of compound exposure one plate of cells is subjected to a MTT assay to evaluate the effect of test and reference items on cell viability. Remaining wells are washed once with cold PBS and harvested in 300 μl RIPA-Buffer [50 mM Tris pH 7.4, 1% Nonident P40, 0.25% Na-deoxy-cholate, 150 mM NaCl, 1 mM EDTA, 1 μM NaF, 1 μM Na-ortho-vanadate, 80 mM Glycerophosphate, supplemented with freshly added protease (Calbiochem) and phosphatase (Sigma) inhibitor cocktail]. The cell suspension is transferred into a 1.5 ml tube and additionally lysed by sonication on ice. An aliquot of 20 μl is taken for the determination of the protein concentration (BCA assay). Subsequently, the lysates are snap frozen and stored at −80° C. until shipment.
Stacking gels are loaded with approximately 100 μg total protein based on BCA assay results. Gels are run until the total protein content forms a single discrete band in the stacking gel. Each protein band is then cut from the gel and digested with either trypsin or Asp-N and analysed using the PhosphoTau SRM assay V2 or V3 respectively. Each assay method quantifies the phosphorylation in pre-clinical material using a triple quadrupole mass spectrometer (TSQ Vantage, Thermo Scientific, Hemel Hempstead, UK). Prior to SRM analysis phosphopeptides and pre-clinical samples were resolved by RP-chromatography (XBridge column, Waters, Manchester, UK) over a 9 minute gradient 0-30% ACN (buffer A; 0.1% FA, buffer B; ACN, 0.1% FA). Light and heavy versions for each peptide and phosphopeptide were monitored by several SRM transitions, using optimised S Lens values and collision energy settings. The area under the SRM LC peak was used to quantitate the amount of analyte present in each cell lysate as a single point reference to the signal of the heavy peptide spike.
An 11 point calibration curve of light phosphopeptides with each point in the curve spiked with 100 fmol heavy phosphopeptides was also produced to determine assay characteristics (LOD, LOQ, precision and accuracy). For each specified tau population, the endogenous level of each tau phosphopeptide was quantified against its calibration curve (0.25-1000 fmol on column). Prior to LC-SRM analysis each tau population was spiked with 100 fmol of the heavy phosphopeptide standards.

Sequence of PKCb2 (P05771 1-673 isoform P05771-2): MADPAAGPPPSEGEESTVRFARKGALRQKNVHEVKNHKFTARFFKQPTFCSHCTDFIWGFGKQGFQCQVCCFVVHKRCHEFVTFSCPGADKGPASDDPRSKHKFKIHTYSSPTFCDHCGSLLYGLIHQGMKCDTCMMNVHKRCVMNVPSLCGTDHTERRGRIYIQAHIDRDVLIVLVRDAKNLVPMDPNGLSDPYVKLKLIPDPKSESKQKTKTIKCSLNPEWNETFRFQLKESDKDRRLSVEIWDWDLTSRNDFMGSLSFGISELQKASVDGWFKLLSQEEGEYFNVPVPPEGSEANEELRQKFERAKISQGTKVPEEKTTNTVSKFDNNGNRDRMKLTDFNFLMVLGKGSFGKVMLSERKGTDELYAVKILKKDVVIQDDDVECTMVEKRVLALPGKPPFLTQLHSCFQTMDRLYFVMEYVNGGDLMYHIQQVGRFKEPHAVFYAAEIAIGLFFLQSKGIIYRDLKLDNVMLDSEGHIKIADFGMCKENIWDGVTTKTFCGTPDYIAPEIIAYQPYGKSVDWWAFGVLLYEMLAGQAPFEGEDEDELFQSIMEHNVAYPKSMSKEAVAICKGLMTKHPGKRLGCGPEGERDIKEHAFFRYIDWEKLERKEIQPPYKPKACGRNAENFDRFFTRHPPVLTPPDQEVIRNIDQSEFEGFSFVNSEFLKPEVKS
Sequence of GSK3b (P49841 whole entry, species assumed): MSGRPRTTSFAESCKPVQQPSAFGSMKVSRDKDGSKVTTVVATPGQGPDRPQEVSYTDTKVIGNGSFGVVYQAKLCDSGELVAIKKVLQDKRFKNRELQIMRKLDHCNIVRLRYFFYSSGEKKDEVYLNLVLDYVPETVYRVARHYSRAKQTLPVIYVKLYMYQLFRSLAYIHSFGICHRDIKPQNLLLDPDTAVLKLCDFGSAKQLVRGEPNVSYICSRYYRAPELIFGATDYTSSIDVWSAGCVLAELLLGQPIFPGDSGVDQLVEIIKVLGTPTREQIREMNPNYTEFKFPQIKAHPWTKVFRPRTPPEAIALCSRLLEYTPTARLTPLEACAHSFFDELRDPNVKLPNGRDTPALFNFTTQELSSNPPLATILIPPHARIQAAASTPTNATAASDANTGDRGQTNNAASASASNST
Sequence of FGFR1 (P11362 22-822, species assumed): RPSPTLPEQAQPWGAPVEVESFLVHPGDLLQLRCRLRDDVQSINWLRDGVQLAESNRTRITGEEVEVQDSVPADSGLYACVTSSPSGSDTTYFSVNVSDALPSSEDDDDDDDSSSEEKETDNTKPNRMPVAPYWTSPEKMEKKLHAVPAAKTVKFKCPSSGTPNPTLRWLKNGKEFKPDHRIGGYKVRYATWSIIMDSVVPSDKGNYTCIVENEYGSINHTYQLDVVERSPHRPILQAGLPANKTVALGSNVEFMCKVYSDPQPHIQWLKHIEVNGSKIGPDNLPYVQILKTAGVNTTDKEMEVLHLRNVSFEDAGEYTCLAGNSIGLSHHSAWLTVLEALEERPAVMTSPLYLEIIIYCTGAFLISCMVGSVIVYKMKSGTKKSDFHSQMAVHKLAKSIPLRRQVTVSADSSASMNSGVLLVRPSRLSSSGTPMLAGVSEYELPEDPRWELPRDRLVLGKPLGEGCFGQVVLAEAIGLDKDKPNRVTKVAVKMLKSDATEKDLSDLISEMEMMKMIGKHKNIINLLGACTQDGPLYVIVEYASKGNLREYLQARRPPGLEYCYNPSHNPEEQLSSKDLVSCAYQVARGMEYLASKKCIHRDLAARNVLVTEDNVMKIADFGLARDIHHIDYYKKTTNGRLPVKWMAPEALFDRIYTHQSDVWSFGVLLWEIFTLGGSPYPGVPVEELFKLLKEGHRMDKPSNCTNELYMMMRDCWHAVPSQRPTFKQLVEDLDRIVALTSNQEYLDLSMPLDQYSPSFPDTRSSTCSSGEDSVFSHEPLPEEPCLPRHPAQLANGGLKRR
Sequence of MSK1/RPS6KA5 (O75582 whole entry): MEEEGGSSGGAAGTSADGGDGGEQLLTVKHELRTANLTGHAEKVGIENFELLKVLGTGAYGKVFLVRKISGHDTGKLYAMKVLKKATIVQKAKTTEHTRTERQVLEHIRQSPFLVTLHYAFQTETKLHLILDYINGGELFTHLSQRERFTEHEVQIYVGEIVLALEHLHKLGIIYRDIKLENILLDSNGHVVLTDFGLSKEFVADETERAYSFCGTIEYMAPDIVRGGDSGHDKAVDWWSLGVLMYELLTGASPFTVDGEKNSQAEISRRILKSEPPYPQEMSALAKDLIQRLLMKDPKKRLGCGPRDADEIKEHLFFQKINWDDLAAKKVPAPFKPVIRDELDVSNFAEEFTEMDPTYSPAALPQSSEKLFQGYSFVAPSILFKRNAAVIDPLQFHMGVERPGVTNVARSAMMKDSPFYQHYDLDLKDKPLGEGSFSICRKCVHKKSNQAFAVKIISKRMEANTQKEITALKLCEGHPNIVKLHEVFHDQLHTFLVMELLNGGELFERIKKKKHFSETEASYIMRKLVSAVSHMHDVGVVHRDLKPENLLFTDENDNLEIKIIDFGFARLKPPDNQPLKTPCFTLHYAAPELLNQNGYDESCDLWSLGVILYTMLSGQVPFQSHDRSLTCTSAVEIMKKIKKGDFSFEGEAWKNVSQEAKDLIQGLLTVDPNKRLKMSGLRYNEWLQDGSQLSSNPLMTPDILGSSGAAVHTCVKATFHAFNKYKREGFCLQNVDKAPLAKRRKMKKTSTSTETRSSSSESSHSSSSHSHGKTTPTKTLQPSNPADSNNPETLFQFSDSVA
Sequence of ROCK1 (Q13464 whole entry, species assumed): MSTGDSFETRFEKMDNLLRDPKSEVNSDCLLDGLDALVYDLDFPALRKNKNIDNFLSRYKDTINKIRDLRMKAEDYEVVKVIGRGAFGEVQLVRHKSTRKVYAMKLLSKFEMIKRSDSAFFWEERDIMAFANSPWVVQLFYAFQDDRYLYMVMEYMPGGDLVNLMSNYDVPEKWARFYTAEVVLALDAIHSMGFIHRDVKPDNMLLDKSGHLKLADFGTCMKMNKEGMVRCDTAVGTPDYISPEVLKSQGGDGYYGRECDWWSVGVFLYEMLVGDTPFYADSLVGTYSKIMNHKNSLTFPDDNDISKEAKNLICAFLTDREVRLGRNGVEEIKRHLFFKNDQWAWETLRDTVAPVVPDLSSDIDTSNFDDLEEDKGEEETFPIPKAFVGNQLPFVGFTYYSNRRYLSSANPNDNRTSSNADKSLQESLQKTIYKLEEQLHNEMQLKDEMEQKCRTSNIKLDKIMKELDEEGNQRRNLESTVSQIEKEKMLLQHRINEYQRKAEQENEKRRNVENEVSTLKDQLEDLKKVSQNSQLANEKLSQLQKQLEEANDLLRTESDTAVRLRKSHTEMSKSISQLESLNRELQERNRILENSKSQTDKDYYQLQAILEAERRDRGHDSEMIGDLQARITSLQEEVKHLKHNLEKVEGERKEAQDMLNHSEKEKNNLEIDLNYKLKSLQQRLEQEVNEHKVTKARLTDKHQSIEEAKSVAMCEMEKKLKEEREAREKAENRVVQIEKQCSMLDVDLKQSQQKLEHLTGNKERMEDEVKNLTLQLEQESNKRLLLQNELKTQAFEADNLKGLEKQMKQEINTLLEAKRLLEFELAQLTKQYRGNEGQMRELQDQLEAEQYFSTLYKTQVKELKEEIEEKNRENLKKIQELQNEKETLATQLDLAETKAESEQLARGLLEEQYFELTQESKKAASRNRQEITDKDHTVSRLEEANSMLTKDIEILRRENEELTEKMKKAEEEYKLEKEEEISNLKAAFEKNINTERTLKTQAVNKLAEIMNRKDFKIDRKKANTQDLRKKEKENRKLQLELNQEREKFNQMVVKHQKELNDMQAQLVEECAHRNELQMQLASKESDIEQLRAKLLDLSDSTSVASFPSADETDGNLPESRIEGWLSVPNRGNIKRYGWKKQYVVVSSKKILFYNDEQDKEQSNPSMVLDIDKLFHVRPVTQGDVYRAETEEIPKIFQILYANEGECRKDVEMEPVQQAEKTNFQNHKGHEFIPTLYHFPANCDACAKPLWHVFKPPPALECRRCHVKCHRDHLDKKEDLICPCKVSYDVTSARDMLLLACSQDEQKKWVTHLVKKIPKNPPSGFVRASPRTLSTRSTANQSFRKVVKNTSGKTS
Sequence of CLK2 (P49760 whole entry, species assumed): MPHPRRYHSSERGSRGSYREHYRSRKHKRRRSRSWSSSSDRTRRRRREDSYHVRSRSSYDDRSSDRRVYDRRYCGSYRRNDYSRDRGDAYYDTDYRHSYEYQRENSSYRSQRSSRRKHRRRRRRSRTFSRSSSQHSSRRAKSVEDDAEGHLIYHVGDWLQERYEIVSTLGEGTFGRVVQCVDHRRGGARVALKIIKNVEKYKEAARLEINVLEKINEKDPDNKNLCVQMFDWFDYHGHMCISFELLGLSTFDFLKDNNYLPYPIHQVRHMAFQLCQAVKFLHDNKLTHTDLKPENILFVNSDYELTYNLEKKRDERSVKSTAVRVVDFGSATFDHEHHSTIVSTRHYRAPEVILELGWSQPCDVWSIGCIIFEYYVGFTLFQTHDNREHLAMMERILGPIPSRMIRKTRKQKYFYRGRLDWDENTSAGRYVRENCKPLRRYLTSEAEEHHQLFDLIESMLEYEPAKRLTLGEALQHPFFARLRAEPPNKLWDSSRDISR

SMILES | selectivity for CK1δ when compared with other kinases (CK1δ) | inhibition of GSK3b (GSK3b) | inhibition of MSK1/RPS6KA5 (MSK1/RPS6KA5) | inhibition of PIM3 (PIM3) | inhibition of PKCb2 (PKCb2) | inhibition of ROCK1 (ROCK1) | inhibition of TNIK (TNIK) | inhibition of CLK2 (CLK2) | inhibition of FGFR1 (FGFR1) | relative level of phosphorylation at each site (level of phosphopeptide) compared with vehicle treated controls [1] | Tau phosphorylated at S396 [1] | phosphorylation of Ser 396 within Tau proteins [1]
Nc1ncc(-c2nc3ccccc3o2)c(-c2ccncc2)n1 [Compound 324, 5-(1,3-benzoxazol-2-yl)-4-(pyridin-4-yl)pyrimidin-2-amine] | significant and selective inhibition for CK1δ | lower than 40% | lower than 40% | lower than 40% | lower than 40% | lower than 40% | lower than 40% | lower than 40% | lower than 40% | distinct reduction | 38% | inhibit phosphorylation
NC(=O)c1c(N)c(C(=O)c2ccc(F)cc2)n2ccccc12 [Compound 987, 2-amino-3-[(4-fluorophenyl)carbonyl]indolizine-1-carboxamide] | significant and selective inhibition for CK1δ | lower than 40% | lower than 40% | lower than 40% | lower than 40% | lower than 40% | lower than 40% | lower than 40% | lower than 40% | distinct reduction | 24% | inhibit phosphorylation
